Structures are written as SMILES. Entries after “also recorded” stand apart in the source; their conditions may differ.

One data set can be described thus: Log D determination. Particulars: octanol / phosphate buffer pH 7.4. The data set is classed as physicochemical. The method, then: An aliquot (˜50 μL) of the formulated radiotracer was added to a test tube containing 2.5 mL of octanol and 2.5 mL of phosphate buffer solution (pH 7.4). The test tube was mixed by vortex for 2 minutes and then centrifuged for 2 minutes to fully separate the aqueous and organic phase. A sample taken from the octanol layer (0.1 mL) and the aqueous layer (1.0 mL) was saved for radioactivity measurement. An additional aliquot of the octanol layer (2.0 mL) was carefully transferred to a new test tube containing 0.5 mL of octanol and 2.5 mL of phosphate buffer solution (pH 7.4). The previous procedure (vortex mixing, centrifugation, sampling, and transfer to the next test tube) was repeated until six sets of aliquot samples had been prepared. The radioactivity of each sample was measured in a well counter (Perkin-Elmer, Waltham, Mass.). The log D of each set of samples was derived by the following equation: log D=log (decay-corrected radioactivity in octanol sample×10/decay-corrected radioactivity in phosphate buffer sample).

The subject of another data set is cell cultures. Description: Efficacy in cell cultures. The data set is classed as cell-based.
In the next data set the target is HDAC1 (Homo sapiens (Human), UniProt Q13547). Description: HDAC inhibition assay. Particulars: read-out: IC50 HDAC1.
Another data set addresses HDAC9 (Homo sapiens (Human), UniProt Q9UKV0). Kind of data set: HDAC inhibition assay. Particulars: read-out: IC50 HDAC9.
The test system of data set [1] is histone deacetylases. Description: Baboon PET/MR imaging with [11C]CN133. The data set is classed as in vivo, baboon (Papio anubis). The protocol:
A female Papio Anubis baboon, deprived of food for 12 hours prior to the study, was administered intramuscular ketamine (10 mg/kg) and intubated. For maintenance of anesthesia throughout the study, the baboon was provided 1%-4% isoflurane (Forane) in a mixture of medical oxygen and nitrogen. The baboon was catheterized antecubitally for radiotracer injection and a radial arterial line was placed for metabolite analysis. MR-PET images were acquired in a BiographmMR scanner (Siemens, Munich, Germany), and PET compatible 8-channel coil arrays for non-human primate brain imaging with a PET resolution of 5 mm and field of view of 59.4 cm and 25.8 cm (transaxial and axial, respectively). Dynamic PET image acquisition was initiated followed by administration of the radiotracer in a homogenous solution of 10% ethanol and 90% isotonic saline. An […] sequence began after 30 minutes of the baseline scan for anatomic coregistration. […] Both scans were carried out in the same animal on the same day, separated by 2.5 hours. In both scans, 4-5 mCi of [^11C]CN133 was administered to the baboon. Dynamic data from the PET scans were recorded in list mode and corrected for attenuation. Baboon data were reconstructed using a 3D-OSEM method resulting in a full width at half-maximum resolution of 4 mm.
Volumes of interest (VOIs) were drawn manually as spheres in brain regions guided by high resolution MR structural images and summed PET data, with a radius no less than 4 mm. A common VOI mask was applied to both baboon scans. Time-activity curves (TACs) were exported in terms of decay corrected activity per unit volume at specified time points with gradually increasing intervals. The TACs were expressed as percent injected dose per unit volume for analysis.
Arterial samples collected during imaging from the baboon were centrifuged to obtain plasma, which was then removed and placed in an automated gamma counter that was calibrated to the PET scanner. Metabolite analysis was conducted on a custom automated robot fitted with Phenomenex SPE Strata-X 500 mg solid phase extraction cartridges that were primed with ethanol (2 mL) and deionized water (20 mL). Protein precipitation was achieved by addition of plasma (300 μL) to acetonitrile (300 μL), which was centrifuged for 1 minute to obtain protein-free plasma (PFP). 300 μL of PFP/acetonitrile solution was diluted into deionized water (3 mL), loaded onto the C18 cartridge, and removed of polar metabolites with 100% water. Next, a series of extractions were performed using water and acetonitrile in quantities: 95:5, 90:10, 85:15, 80:20, 70:30, 60:40, 30:70 and 100% acetonitrile at a volume of 4 mL. A control experiment was performed before metabolite analysis to determine the retention of the parent compound by injection of a small amount of [^11C]CN133 onto a test series of extraction cartridges. Each sample was counted in a WIZARD2 Automatic Gamma Counter to determine the presence of radiolabeled metabolites.
CN147 blocks ˜40% of [^11C]CN133 binding in NHP whole brain and in cerebellum. Plasma-normalized data were evaluated by volume of interest analysis (VOI) at the whole brain level and at level of the cerebellum. VOI data were then applied to distribution volume (VT) data analysis by two graphical methods using PMOD software, tabulated in Tables A and B below. Logan Plot and Ichese MAI methods were clarified from previous NHP imaging analyses to provide an accurate VT estimate (+/− standard error) from data beginning 35 min after injection of radiotracer (t*=35 min) until the end of the scan (t=80min).

Data set [2] concerns histone deacetylases. Description: Rodent PET/CT imaging with [11C]CN133. The data set is classed as in vivo, rats (Sprague Dawley). The protocol: Male Sprague-Dawley rats were utilized in pairs, anesthetized with inhalational isoflurane (Forane) at 3% in a carrier of 2 L/min medical oxygen and maintained at 2% isoflurane for the duration of the scan. The rats were arranged head-to-head in a Triumph Trimodality PET/CT/SPECT scanner (Gamma Medica, Northridge, Calif., USA). Rats were injected standard references or vehicle via a lateral tail vein catheterization at the start of PET acquisition. Dynamic PET acquisition lasted for 60 minutes and was followed by computed tomography (CT) for anatomic coregistration. PET data were reconstructed using a 3D-MLEM method resulting in a full width at half-maximum resolution of 1 mm. Reconstructed images were exported from the scanner in DICOM format along with an anatomic CT for rodent studies. These files were imported to PMOD (PMOD Technologies, Ltd.) and manually coregistered using six degrees of freedom.
Volumes of interest (VOIs) were drawn manually as spheres in brain regions guided by high resolution CT structural images and summed PET data, with a radius no less than 1 mm to minimize partial volume effects. Time-activity curves (TACs) were exported in terms of decay corrected activity per unit volume at specified time points with gradually increasing intervals. The TACs were expressed as percent injected dose per unit volume for analysis.

The next data set addresses HDAC3 (Homo sapiens (Human), UniProt O15379). Description: HDAC inhibition assay. Particulars: read-out: IC50 HDAC3.
For another data set, the target named is HDAC7 (Homo sapiens (Human), UniProt Q8WUI4). Description: HDAC inhibition assay. The settings on record: read-out: IC50 HDAC7.
HDAC7, sequence (Q8WUI4 whole entry): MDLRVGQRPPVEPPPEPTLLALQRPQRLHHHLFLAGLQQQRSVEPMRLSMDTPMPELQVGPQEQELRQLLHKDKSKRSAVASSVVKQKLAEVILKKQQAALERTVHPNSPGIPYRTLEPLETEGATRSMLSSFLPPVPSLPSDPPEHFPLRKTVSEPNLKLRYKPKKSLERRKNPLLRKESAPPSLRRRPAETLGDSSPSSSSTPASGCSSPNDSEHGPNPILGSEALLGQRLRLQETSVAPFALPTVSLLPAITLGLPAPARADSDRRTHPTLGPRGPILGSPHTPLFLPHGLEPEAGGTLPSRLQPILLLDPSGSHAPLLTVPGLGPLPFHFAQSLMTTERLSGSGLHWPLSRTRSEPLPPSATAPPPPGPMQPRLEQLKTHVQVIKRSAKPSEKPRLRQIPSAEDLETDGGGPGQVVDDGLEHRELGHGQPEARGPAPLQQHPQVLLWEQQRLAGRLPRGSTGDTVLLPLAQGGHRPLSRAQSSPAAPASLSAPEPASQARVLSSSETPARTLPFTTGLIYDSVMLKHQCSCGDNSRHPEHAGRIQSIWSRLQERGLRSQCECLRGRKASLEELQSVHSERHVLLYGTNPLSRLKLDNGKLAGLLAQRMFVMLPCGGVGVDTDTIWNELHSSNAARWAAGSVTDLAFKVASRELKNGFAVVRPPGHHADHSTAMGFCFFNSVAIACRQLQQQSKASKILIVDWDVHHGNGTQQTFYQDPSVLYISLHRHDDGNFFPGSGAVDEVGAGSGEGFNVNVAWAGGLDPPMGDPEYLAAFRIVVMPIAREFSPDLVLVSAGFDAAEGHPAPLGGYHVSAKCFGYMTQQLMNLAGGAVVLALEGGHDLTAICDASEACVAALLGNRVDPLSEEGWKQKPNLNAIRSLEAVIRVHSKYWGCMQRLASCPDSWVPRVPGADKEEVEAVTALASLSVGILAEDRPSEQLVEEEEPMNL
The nature of data set [3]: Off target binding assays. The settings on record: at 100 times its HDAC IC50.
Another data set has as its target HDAC8 (Homo sapiens (Human), UniProt Q9BY41). Kind of data set: HDAC inhibition assay. The class given is biochemical. The source says:
(§1) All histone deacetylases were purchased from BPS Bioscience. […] All the other reagents were purchased from Sigma-Aldrich.

The target of another data set is HDAC6 (Homo sapiens (Human), UniProt Q9UBN7). Kind of data set: HDAC inhibition assay. The data set is classed as biochemical.
HDAC6, sequence (Q9UBN7 whole entry): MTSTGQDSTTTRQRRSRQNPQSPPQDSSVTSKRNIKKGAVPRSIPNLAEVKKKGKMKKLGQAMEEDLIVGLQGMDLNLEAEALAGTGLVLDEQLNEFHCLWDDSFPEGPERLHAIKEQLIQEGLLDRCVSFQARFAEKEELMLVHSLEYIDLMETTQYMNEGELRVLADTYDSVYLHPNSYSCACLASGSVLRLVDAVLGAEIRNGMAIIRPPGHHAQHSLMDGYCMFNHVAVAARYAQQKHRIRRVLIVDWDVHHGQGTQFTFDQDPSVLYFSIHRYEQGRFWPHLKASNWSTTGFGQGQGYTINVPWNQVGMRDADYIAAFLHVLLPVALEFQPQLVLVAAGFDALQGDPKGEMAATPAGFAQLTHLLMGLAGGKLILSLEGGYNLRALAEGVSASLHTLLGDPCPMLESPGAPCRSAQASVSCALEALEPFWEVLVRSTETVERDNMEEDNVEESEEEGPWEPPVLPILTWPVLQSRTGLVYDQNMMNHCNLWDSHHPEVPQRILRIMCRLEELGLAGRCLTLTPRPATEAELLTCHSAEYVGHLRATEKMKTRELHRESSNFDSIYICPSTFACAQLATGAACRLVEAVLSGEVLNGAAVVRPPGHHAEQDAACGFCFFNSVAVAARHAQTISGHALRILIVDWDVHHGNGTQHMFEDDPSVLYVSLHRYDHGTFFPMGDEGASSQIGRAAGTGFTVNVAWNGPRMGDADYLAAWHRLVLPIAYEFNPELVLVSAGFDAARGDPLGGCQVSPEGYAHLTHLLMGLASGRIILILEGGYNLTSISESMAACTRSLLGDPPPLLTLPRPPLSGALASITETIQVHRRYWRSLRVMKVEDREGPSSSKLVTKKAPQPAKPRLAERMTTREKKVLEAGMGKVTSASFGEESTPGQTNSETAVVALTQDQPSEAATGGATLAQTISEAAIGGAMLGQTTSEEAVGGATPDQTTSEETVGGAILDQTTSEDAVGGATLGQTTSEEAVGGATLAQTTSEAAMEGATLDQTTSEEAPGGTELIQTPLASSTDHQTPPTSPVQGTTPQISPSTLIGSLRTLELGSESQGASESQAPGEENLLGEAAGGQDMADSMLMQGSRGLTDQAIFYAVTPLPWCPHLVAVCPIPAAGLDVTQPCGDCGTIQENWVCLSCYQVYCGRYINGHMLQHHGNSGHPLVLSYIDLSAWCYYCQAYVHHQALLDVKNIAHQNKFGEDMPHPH
Description: as §1

In the next data set the target is HDAC1 through HDAC9. Description: HDAC inhibition assay, isoform panel. The data set is classed as biochemical.
Description: as §1

The target of the next data set is HDAC4 (Homo sapiens (Human), UniProt P56524). Description: HDAC inhibition assay. The settings on record: read-out: IC50 HDAC4.
Another data set addresses HDAC5 (Homo sapiens (Human), UniProt Q9UQL6). Description: HDAC inhibition assay. Particulars: read-out: IC50 HDAC5.

HDAC9, sequence (Q9UKV0 whole entry): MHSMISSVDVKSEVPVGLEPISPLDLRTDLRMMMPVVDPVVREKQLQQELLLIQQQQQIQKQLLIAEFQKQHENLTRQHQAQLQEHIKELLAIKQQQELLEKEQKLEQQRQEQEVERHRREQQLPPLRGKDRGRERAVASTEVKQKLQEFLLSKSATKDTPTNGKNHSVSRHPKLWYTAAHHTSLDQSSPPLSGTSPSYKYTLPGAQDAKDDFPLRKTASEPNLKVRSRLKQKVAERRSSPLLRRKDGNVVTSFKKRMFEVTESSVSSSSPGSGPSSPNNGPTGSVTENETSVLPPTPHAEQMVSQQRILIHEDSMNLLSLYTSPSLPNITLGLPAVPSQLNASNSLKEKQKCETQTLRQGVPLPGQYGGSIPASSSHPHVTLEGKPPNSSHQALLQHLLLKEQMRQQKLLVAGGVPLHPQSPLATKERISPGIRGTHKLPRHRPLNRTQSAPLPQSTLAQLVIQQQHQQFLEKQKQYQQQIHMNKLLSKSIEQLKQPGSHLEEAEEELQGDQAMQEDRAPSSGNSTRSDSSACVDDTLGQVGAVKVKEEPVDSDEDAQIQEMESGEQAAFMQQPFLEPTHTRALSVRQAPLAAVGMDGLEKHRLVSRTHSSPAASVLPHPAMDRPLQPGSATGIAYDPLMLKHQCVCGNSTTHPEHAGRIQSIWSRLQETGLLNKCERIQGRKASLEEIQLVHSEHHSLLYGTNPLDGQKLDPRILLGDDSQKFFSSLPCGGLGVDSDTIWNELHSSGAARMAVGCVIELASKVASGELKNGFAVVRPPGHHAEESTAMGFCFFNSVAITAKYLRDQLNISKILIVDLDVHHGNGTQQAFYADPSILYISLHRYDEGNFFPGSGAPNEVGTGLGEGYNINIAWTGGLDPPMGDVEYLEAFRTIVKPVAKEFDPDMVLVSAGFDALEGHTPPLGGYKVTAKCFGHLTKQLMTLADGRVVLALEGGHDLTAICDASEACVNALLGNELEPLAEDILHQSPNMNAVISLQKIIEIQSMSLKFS
HDAC5, sequence (Q9UQL6 whole entry): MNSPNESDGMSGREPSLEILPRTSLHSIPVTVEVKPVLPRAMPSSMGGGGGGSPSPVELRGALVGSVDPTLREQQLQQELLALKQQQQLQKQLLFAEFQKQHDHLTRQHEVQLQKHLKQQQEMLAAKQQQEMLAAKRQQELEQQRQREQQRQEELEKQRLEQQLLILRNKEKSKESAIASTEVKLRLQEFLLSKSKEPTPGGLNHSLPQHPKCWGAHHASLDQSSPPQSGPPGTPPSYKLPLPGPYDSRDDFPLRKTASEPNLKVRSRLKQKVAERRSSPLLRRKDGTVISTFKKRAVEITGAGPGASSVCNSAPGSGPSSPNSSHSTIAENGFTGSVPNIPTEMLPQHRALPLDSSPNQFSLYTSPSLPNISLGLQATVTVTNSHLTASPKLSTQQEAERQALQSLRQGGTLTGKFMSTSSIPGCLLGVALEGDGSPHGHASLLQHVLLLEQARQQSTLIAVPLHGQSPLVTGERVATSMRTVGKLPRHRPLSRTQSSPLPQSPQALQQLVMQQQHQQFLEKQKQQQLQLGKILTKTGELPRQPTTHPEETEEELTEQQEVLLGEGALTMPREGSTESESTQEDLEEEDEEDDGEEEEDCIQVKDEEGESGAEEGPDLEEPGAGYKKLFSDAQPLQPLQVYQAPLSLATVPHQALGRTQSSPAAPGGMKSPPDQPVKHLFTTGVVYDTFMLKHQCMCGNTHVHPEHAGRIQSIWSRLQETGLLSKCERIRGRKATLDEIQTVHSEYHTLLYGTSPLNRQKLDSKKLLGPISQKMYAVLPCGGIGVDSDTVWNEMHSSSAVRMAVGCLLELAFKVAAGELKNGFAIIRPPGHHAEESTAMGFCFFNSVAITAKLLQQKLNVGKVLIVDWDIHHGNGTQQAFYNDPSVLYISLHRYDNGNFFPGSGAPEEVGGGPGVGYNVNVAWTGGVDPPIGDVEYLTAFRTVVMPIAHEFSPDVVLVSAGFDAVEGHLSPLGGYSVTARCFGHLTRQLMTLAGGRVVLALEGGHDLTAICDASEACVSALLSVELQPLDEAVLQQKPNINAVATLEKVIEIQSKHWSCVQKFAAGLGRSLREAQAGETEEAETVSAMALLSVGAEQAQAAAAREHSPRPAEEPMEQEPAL
HDAC8, sequence (Q9BY41 whole entry): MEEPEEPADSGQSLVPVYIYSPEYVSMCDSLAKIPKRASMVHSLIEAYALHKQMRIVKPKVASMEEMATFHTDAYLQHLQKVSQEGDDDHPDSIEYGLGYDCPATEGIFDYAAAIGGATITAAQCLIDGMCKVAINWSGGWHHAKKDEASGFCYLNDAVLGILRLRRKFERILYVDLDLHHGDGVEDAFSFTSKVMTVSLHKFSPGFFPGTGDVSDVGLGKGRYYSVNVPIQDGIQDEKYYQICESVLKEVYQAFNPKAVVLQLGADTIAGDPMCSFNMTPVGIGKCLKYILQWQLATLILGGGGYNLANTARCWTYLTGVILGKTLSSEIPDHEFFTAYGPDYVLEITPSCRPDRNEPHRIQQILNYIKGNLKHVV
Description for HDAC3: (§2) All histone deacetylases were purchased from BPS Bioscience. […] All the other reagents were purchased from Sigma-Aldrich. Caliper EZ reader II system was used to collect all data. […] Purified HDACs were incubated with 2 μM carboxyfluorescein (FAM)-labeled acetylated or trifluoroacetylated peptide substrate (Broad Substrate A and B respectively) and test compound for 60 minutes at room temperature, in HDAC assay buffer that contained 50 mM HEPES (pH 7.4), 100 mM KCl, 0.01% BSA and 0.001% Tween-20. […] Substrate and product were separated electrophoretically and fluorescence intensity in the substrate and product peaks was determined and analyzed by Labchip EZ Reader. The reactions were performed in duplicate for each sample. IC50 values were automatically calculated by Origin 8 using 4 Parameter Logistic Model. The percent inhibition was plotted against the compound concentration, and the IC50 value was determined from the logistic dose-response curve fitting by Origin 8.0 software.
Description for HDAC4: as §2
Description for HDAC5: as §2
Description for HDAC7: as §2

In general, IC50 refers to the concentration that inhibits the measured activity by half. Regarding `CN(Cc1ccc(/C=C/C(=O)NO)cc1)CC12CC3CC(CC(C3)C1)C2` [CN133, (E)-3-(4-((((3r,5r,7r)-adamantan-1-ylmethyl)(methyl)amino)methyl)phenyl)-N-hydroxyacrylamide], the “partition coefficient (Log D)” value in the data set “Log D determination” was 2.03. In the data set on cell cultures, the “efficacy in cell cultures” value is listed as “sub-nanomolar”. Also, the 50% inhibitory concentration (IC50) on HDAC1 is 0.3 nM; on HDAC9, greater than 15000 nM; on HDAC3 it was 0.6 nM; on HDAC7, greater than 20000 nM; against HDAC8, greater than 15000 nM; at HDAC6, 4.1 nM. For the same molecule, the IC50 at HDAC4 was 1970 nM; on HDAC5, 352 nM. For the same molecule, the “changes in vital signs” value in the data set on histone deacetylases [1] (baboon, tracer dose or blocking dose) is “did not notice any significant changes”. In addition, in the data set on histone deacetylases [1] (heart, spleen, kidney, pancreas, CN133 0.5 mg/kg 10-minute pre-treatment, SAHA infusion 5 mg/kg), the “blocking of [11C]CN133 uptake in baboon peripheral organs (time-activity curves)” value is given as “significant blocking”. Moreover, in the data set with histone deacetylases [1] (intravenous, CN133 0.01-1.0 mg/kg, CN147 0.5 mg/kg), the “blocking of [11C]CN133 uptake in baboon brain” value was “reduced the regional radioactivity uptake”. Besides, the “P-glycoprotein interaction (CsA pretreatment study)” value in the data set on histone deacetylases [2] (30-minute pretreatment of CsA 25 mg/kg) is reported as “not a Pgp inhibitor”. Besides, the reversibility of binding entry in the data set on histone deacetylases [2] (CN133 1.0 mg/kg i.v. 20 minutes into baseline scan with [11C]CN133) is given as “reversible inhibitor; also recorded: rapid washout of radioactivity from brain regions”. For the same molecule, in the data set on histone deacetylases [2] (peripheral organs (heart wall, kidney cortex, spleen)), the “[11C]CN133 uptake in peripheral organs/regions of rats after treatment” value was “decreased”. Further, the off target binding entry in data set [3] is “minimal (if any) off target binding”. The “IC50 / binding towards HDAC isoforms (in words)” value at HDAC1 through HDAC9 (HDAC1, HDAC2, HDAC3 and HDAC6) is recorded as “low nanomolar; also recorded: sub-nanomolar”. In the data set with HDAC1 through HDAC9 (HDAC1-3 and HDAC6 versus other isoforms), the “selectivity over each of the other HDAC isoforms” value was “greater than 100 fold”.

(Values after patent US10188756B2, “Imaging histone deacetylases with a radiotracer using positron emission tomography” (THE GENERAL HOSPITAL CORPORATION, priority 2013, dated 2019).)
